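Results reflect a 48-hour exposure of cells in 96-well plates to compound at five concentrations. TGI denotes the concentration required for complete inhibition of growth.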
How the values were obtained:
Test in all cases: growth of human tumour cells (NCI), 48 h
NCI-H522 lung = system: NCI-H522 lung
MDA-MB-435 = system: MDA-MB-435
UACC-257 melanoma = system: UACC-257 melanoma
HOP-62 NSCLC = system: HOP-62 NSCLC
SN12C renal = system: SN12C renal
HCT-116 colon = system: HCT-116 colon
NCI-H23 lung = system: NCI-H23 lung
NCI-H226 lung = system: NCI-H226 lung
MDA-N = system: MDA-N
TK-10 renal = system: TK-10 renal
SK-MEL-28 melanoma = system: SK-MEL-28 melanoma
OVCAR-3 ovarian = system: OVCAR-3 ovarian
ACHN renal = system: ACHN renal
T-47D breast = system: T-47D breast
HOP-92 NSCLC = system: HOP-92 NSCLC
OVCAR-4 ovarian = system: OVCAR-4 ovarian
KM12 colon = system: KM12 colon
LOX IMVI melanoma = system: LOX IMVI melanoma
PC-3 prostate = system: PC-3 prostate
HS 578T breast = system: HS 578T breast
K-562 leukemia = system: K-562 leukemia
MOLT-4 leukemia = system: MOLT-4 leukemia
SF-268 CNS = system: SF-268 CNS
EKVX NSCLC = system: EKVX NSCLC
MALME-3M melanoma = system: MALME-3M melanoma
786-0 renal = system: 786-0 renal
HT29 colon = system: HT29 colon
IGROV1 ovarian = system: IGROV1 ovarian
NCI-H460 lung = system: NCI-H460 lung
SR leukemia = system: SR leukemia
MDA-MB-231 breast = system: MDA-MB-231 breast
RXF 393 renal = system: RXF 393 renal
SF-539 CNS = system: SF-539 CNS
A498 renal = system: A498 renal
SK-MEL-5 melanoma = system: SK-MEL-5 melanoma
NCI/ADR-RES ovarian = system: NCI/ADR-RES ovarian
OVCAR-5 ovarian = system: OVCAR-5 ovarian
HL-60(TB) leukemia = system: HL-60(TB) leukemia
SNB-19 CNS = system: SNB-19 CNS
OVCAR-8 ovarian = system: OVCAR-8 ovarian
SW-620 colon = system: SW-620 colon
UACC-62 melanoma = system: UACC-62 melanoma
A549 NSCLC = system: A549 NSCLC
RPMI-8226 leukemia = system: RPMI-8226 leukemia
SNB-75 CNS = system: SNB-75 CNS
SF-295 CNS = system: SF-295 CNS
M14 melanoma = system: M14 melanoma
CCRF-CEM leukemia = system: CCRF-CEM leukemia
UO-31 renal = system: UO-31 renal
DU-145 prostate = system: DU-145 prostate
U251 CNS = system: U251 CNS
COLO 205 colon = system: COLO 205 colon
CAKI-1 renal = system: CAKI-1 renal
SK-MEL-2 melanoma = system: SK-MEL-2 melanoma
MCF7 breast = system: MCF7 breast
HCT-15 colon = system: HCT-15 colon
BT-549 breast = system: BT-549 breast

Measured: TGI

COC(=O)[C@@H]1CN(C(=O)c2ccccc2)C(=O)N1
> 100 µM: NCI-H522 lung | MDA-MB-435 | UACC-257 melanoma | HOP-62 NSCLC | SN12C renal | HCT-116 colon | NCI-H23 lung | NCI-H226 lung | MDA-N | TK-10 renal | SK-MEL-28 melanoma | OVCAR-3 ovarian | ACHN renal | T-47D breast | HOP-92 NSCLC | OVCAR-4 ovarian | KM12 colon | LOX IMVI melanoma | PC-3 prostate | HS 578T breast | K-562 leukemia | MOLT-4 leukemia | SF-268 CNS | EKVX NSCLC | MALME-3M melanoma | 786-0 renal | HT29 colon | IGROV1 ovarian | NCI-H460 lung | SR leukemia | MDA-MB-231 breast | RXF 393 renal | SF-539 CNS | A498 renal | SK-MEL-5 melanoma | NCI/ADR-RES ovarian | OVCAR-5 ovarian | HL-60(TB) leukemia | SNB-19 CNS | OVCAR-8 ovarian | SW-620 colon | UACC-62 melanoma | A549 NSCLC | RPMI-8226 leukemia | SNB-75 CNS | SF-295 CNS | M14 melanoma | CCRF-CEM leukemia | UO-31 renal | DU-145 prostate | U251 CNS

Cc1ccc(Cl)c2c(=O)c3ccc([N+](=O)[O-])cc3sc12
> 100 µM: COLO 205 colon | UACC-257 melanoma | HOP-62 NSCLC | CAKI-1 renal | HCT-116 colon | SK-MEL-2 melanoma | NCI-H23 lung | MDA-N | OVCAR-3 ovarian | ACHN renal | KM12 colon | PC-3 prostate | K-562 leukemia | MOLT-4 leukemia | 786-0 renal | MCF7 breast | SK-MEL-5 melanoma | HCT-15 colon | OVCAR-5 ovarian | SNB-19 CNS | OVCAR-8 ovarian | UACC-62 melanoma | A549 NSCLC | RPMI-8226 leukemia | SF-295 CNS | UO-31 renal | DU-145 prostate | BT-549 breast

Reference: PubChem BioAssay (NCI)
